Experimental findings from patent US20240269139A1, “COMPOUNDS FOR TARGETED PROTEIN DEGRADATION OF KINASES” (DANA-FARBER CANCER INSTITUTE, INC., priority 2020, published 2024) are described below.

Where two headings read alike, the source gives them in different places.

Format in all cases: cell-based
Experiment [1] concerns the target protein kinases (human kinome) (Homo sapiens, UniProt P48730).
For experiment [2], the system named is protein kinases (human kinome). The settings on record: for logFC GSK3B: experiment wp017.
The target in experiment [3] is T1, protein kinases (human kinome) (Homo sapiens, UniProt O60285).
T1 sequence (O60285 1-661): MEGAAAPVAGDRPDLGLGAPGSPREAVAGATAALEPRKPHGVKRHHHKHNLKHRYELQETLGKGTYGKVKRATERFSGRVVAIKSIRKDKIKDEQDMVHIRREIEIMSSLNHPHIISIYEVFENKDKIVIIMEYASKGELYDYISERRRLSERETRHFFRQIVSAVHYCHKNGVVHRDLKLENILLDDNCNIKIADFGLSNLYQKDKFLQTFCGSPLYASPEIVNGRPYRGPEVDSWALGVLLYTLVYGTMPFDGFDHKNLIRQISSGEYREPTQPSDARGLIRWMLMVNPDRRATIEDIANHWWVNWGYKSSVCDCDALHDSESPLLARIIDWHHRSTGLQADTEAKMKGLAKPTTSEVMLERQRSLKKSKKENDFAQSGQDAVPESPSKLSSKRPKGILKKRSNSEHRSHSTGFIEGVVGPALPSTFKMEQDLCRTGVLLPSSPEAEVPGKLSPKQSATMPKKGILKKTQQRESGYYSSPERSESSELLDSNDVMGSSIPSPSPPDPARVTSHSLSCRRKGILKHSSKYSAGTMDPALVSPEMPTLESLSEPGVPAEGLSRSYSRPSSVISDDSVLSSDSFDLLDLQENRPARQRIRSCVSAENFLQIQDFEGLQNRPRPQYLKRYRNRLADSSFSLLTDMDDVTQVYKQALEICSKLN
The settings on record: NUAK1 (O60285), experiment wp017.

For experiment [4], the target named is protein kinases (human kinome) (Homo sapiens, UniProt P49840). Particulars: GSK3A P49840; experiment wp017.
protein kinases (human kinome) (Homo sapiens, UniProt P49840), sequence (P49840 whole entry): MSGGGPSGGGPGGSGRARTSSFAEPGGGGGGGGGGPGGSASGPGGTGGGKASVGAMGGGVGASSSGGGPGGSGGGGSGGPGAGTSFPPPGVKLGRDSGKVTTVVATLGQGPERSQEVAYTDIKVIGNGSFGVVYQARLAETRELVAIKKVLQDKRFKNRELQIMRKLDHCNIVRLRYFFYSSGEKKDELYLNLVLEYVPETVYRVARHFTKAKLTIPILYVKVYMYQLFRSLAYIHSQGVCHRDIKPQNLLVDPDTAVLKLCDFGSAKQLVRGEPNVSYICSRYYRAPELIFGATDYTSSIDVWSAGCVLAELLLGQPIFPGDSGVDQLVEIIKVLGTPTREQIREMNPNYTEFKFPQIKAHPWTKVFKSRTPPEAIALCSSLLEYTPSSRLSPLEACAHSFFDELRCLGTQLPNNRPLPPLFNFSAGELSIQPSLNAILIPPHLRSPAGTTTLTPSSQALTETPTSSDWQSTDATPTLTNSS
The target in experiment [5] is T2, protein kinases (human kinome) (Homo sapiens, UniProt O94768).
T2 sequence (O94768 1-372): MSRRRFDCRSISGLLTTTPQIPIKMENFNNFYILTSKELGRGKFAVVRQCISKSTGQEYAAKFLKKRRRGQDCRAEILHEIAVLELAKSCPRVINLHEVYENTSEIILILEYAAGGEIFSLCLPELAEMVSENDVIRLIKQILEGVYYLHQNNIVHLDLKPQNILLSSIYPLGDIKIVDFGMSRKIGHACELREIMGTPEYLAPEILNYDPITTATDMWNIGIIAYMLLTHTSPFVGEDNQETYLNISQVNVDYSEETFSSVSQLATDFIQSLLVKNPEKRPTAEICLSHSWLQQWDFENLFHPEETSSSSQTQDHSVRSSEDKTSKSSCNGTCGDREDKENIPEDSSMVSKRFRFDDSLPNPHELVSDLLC

In experiment [6] the target is protein kinases (human kinome) (Homo sapiens, UniProt O94921).
protein kinases (human kinome) (Homo sapiens, UniProt O94921), sequence (O94921 whole entry): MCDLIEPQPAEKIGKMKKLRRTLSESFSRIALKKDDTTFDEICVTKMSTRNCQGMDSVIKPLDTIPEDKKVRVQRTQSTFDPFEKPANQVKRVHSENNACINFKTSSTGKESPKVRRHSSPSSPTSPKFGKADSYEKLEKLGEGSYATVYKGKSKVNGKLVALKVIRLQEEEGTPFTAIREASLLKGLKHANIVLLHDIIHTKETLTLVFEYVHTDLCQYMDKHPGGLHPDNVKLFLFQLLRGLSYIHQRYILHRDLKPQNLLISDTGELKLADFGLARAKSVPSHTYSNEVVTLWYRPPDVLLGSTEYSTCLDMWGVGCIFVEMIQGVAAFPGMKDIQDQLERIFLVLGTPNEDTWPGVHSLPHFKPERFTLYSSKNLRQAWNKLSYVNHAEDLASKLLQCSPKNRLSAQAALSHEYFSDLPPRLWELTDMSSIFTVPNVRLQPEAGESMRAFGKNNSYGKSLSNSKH
In experiment [7] the target is protein kinases (human kinome) (Homo sapiens, UniProt Q9P1W9).
protein kinases (human kinome) (Homo sapiens, UniProt Q9P1W9), sequence (Q9P1W9 whole entry): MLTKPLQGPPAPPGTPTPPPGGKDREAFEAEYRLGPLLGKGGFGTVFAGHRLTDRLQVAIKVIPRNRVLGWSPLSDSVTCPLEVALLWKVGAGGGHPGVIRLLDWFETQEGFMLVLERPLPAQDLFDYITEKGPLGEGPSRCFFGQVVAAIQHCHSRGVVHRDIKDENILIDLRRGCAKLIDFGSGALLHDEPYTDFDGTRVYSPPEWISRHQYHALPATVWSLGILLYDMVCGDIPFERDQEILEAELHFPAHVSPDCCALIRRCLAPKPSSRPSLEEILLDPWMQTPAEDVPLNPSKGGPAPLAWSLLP
The target in experiment [8] is T3, protein kinases (human kinome) (Homo sapiens, UniProt Q8TBX8).
T3 sequence (Q8TBX8 1-421): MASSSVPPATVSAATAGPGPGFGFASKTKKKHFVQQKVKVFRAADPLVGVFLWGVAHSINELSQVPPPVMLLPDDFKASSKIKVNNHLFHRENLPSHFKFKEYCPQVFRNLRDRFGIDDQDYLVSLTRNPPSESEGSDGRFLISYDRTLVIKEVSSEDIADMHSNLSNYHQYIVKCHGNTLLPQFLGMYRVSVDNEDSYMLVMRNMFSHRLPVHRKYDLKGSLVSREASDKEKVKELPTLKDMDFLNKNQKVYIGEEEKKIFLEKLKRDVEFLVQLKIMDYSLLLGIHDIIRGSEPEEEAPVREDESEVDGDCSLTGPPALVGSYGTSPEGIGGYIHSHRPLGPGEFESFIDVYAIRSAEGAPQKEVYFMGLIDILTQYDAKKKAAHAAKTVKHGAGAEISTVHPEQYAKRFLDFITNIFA
The settings on record: PIP4K2C Q8TBX8-1; experiment wp017.

For experiment [9], the target named is T4, protein kinases (human kinome) (Homo sapiens, UniProt Q13043).
T4 sequence (Q13043 1-487): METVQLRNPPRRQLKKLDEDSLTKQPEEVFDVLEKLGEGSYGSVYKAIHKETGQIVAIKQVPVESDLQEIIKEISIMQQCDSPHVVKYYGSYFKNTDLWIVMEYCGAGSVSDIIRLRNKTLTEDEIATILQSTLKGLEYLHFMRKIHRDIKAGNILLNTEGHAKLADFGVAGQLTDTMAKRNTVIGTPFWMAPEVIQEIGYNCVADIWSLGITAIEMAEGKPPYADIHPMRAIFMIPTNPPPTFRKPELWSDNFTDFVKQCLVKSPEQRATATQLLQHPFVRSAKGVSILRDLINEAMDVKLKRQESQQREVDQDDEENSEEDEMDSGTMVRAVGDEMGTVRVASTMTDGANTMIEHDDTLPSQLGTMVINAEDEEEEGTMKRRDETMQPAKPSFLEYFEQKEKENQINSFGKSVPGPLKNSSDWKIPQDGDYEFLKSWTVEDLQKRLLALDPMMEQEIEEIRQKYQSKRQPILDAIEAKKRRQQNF

The target in experiment [10] is protein kinases (human kinome) (Homo sapiens, UniProt P42684).
protein kinases (human kinome) (Homo sapiens, UniProt P42684), sequence (P42684 whole entry): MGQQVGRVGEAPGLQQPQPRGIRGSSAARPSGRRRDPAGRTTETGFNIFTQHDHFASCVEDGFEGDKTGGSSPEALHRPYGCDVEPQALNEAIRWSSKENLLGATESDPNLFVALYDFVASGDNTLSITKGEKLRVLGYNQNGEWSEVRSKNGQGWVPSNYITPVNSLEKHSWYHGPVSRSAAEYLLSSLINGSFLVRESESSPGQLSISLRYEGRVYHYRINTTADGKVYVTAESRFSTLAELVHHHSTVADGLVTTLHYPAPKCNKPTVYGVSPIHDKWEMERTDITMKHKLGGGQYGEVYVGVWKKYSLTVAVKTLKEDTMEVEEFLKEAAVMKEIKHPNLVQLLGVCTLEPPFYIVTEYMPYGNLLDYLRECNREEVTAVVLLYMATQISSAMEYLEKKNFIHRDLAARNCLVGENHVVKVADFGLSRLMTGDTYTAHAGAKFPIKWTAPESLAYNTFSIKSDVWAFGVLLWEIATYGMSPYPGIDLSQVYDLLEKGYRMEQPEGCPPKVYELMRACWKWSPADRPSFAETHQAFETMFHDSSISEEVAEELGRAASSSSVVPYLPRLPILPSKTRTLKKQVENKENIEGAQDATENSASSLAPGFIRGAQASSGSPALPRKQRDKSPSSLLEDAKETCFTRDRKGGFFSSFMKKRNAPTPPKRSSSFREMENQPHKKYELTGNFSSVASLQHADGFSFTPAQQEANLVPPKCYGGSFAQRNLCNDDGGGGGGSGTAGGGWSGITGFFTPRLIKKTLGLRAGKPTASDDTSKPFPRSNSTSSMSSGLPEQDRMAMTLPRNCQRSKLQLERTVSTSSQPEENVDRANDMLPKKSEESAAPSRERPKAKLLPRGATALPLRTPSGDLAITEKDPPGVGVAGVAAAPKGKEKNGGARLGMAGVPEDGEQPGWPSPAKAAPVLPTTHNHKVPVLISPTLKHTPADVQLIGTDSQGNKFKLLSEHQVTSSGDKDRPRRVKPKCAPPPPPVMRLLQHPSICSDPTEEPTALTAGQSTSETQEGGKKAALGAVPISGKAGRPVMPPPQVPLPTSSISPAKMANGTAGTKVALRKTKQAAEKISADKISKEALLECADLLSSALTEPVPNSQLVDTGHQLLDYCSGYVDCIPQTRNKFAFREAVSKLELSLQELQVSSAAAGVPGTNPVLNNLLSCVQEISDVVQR
In experiment [11] the target is protein kinases (human kinome) (Homo sapiens, UniProt P51451).
protein kinases (human kinome) (Homo sapiens, UniProt P51451), sequence (P51451 whole entry): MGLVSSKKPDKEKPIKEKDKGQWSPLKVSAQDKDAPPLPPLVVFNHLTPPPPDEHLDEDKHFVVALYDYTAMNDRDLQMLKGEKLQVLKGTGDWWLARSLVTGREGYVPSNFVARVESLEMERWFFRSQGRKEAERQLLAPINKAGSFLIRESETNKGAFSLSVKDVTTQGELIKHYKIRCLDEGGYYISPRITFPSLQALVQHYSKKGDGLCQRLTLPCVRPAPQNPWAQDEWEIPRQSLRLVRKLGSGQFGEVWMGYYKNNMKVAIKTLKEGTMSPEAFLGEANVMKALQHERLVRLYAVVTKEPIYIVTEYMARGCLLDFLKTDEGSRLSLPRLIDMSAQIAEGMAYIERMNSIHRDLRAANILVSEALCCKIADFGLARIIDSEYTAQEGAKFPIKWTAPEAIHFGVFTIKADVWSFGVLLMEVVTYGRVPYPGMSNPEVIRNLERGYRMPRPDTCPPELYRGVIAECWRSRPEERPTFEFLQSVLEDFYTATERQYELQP
The target in experiment [12] is T5, protein kinases (human kinome) (Homo sapiens, UniProt Q13163).
T5 sequence (Q13163 1-448): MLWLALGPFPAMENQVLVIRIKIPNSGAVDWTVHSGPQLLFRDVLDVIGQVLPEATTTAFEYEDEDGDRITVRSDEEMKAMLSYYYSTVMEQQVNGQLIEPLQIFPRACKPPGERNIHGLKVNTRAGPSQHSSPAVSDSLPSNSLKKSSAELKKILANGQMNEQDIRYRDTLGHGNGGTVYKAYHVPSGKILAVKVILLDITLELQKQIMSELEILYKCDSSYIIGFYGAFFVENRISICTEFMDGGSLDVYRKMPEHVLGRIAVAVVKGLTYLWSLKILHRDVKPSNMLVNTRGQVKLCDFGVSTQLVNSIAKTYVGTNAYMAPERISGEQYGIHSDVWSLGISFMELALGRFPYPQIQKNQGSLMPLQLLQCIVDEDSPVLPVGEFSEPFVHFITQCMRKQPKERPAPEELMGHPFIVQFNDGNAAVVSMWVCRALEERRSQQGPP
Particulars: experiment wp071.

Experiment [13] deals with protein kinases (human kinome) (Homo sapiens, UniProt P53667). Particulars: LIMK1 (P53667-1), experiment wp071.
protein kinases (human kinome) (Homo sapiens, UniProt P53667), sequence (P53667 whole entry): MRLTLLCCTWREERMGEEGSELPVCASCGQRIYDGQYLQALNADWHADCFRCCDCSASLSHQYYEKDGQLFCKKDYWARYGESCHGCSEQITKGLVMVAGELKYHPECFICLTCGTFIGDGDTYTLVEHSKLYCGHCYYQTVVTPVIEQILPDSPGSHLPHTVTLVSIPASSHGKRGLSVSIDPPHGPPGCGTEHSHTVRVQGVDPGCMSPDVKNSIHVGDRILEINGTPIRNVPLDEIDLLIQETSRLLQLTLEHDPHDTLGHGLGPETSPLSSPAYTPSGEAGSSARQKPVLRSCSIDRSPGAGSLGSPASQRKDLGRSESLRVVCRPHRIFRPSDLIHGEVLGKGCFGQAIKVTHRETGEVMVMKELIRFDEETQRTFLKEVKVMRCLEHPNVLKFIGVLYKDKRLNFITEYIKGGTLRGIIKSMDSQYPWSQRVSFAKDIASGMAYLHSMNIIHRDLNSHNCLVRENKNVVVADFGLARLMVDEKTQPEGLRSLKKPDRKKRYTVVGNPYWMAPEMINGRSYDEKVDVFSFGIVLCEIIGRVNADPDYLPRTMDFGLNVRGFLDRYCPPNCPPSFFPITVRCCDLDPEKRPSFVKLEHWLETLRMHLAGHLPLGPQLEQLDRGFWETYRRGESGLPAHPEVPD
The target in experiment [14] is protein kinases (human kinome) (Homo sapiens, UniProt P49674). Particulars: CSNK1E P49674; experiment wp071.
protein kinases (human kinome) (Homo sapiens, UniProt P49674), sequence (P49674 whole entry): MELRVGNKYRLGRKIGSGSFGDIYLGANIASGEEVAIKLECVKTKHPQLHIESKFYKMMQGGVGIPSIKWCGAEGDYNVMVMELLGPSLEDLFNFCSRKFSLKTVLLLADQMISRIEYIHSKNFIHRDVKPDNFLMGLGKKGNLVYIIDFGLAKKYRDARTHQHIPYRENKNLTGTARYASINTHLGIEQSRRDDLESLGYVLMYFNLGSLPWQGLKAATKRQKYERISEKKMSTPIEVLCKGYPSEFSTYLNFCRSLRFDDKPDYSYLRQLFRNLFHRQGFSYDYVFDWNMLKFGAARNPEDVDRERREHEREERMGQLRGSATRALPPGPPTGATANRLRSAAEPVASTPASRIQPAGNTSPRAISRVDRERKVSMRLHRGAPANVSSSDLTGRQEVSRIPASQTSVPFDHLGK
The target of experiment [15] is T6, protein kinases (human kinome) (Homo sapiens, UniProt O95835).
T6 sequence (O95835 1-1130): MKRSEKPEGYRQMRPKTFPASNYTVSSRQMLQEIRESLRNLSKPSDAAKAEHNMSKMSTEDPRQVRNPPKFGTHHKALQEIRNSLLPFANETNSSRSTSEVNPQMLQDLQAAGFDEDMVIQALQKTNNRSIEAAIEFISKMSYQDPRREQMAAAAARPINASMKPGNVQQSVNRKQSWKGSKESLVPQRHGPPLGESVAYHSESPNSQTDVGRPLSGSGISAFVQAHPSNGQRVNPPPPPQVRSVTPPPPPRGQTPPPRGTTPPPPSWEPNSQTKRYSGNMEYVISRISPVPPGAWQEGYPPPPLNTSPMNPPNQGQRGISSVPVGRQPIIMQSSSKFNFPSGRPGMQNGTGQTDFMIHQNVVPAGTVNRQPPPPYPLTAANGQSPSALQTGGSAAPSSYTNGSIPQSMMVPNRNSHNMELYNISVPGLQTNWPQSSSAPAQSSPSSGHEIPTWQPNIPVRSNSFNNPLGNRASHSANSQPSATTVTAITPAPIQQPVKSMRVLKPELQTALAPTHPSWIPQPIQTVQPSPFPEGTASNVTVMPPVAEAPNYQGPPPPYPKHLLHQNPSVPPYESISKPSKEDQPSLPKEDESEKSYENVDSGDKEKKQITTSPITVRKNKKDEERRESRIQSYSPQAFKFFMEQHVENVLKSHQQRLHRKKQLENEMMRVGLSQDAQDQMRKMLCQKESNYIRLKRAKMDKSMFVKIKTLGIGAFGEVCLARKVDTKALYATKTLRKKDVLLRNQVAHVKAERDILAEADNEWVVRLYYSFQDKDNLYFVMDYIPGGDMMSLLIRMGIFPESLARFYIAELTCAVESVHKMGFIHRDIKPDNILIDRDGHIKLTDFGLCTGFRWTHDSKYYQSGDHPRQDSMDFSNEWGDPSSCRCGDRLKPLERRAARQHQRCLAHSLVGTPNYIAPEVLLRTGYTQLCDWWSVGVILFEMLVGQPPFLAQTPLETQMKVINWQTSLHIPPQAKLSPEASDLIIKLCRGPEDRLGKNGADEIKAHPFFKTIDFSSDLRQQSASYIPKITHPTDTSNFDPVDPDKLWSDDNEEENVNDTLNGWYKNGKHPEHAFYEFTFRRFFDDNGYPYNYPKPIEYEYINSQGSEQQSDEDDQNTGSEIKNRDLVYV
Particulars: LATS1 O95835; experiment wp071.

Experiment [16] has as its target protein kinases (human kinome) (Homo sapiens, UniProt P41240). Particulars: experiment wp071.

protein kinases (human kinome) (Homo sapiens, UniProt P48730), sequence (P48730 whole entry): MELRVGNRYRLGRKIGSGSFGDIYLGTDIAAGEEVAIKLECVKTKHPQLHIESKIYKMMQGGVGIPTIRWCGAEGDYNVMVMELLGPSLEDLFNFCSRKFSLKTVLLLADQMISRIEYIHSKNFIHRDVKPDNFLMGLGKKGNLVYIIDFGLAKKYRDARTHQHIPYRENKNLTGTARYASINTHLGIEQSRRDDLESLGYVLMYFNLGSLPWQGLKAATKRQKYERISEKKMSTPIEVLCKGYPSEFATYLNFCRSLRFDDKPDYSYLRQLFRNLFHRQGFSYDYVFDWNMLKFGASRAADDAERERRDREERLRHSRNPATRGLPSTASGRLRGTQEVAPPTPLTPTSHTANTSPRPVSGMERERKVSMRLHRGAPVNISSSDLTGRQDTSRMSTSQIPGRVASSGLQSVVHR
protein kinases (human kinome) (Homo sapiens, UniProt P41240), sequence (P41240 whole entry): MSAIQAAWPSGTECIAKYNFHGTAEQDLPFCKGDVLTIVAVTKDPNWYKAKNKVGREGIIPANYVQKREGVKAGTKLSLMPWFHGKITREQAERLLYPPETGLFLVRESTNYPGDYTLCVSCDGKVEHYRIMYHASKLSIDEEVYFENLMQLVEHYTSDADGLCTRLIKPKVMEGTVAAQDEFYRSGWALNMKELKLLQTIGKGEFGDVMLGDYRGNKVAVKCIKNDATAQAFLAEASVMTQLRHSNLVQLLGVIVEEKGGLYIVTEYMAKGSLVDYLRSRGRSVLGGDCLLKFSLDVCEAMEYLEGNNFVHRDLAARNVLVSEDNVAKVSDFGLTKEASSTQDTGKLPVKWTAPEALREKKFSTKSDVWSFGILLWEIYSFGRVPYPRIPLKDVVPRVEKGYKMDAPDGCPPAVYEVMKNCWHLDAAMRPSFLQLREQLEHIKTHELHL

`Nc1ncc(-c2ccc(S(=O)(=O)N(CCCNC(=O)CCOCCOCCOCCOCCOCCNc3cccc4c3C(=O)N(C3CCC(=O)NC3=O)C4=O)C3CC3)cc2F)cc1-c1ccc2c(c1)CCNC2=O` (stereo not drawn) [WH.9533.153]: the “logFC CSNK1D” value in experiment [1] (Accession P48730-1, experiment wp017, direction down) was −0.7788. In addition, the “logFC of CSNK1D (P48730-1)” value in [1] (Experiment wp017) is recorded as −0.7788. Further, the “logFC GSK3B” value is −1.317 in experiment [2] (Accession P49841-2, direction down) and −1.317 in experiment [2] (GSK3B P49841-2). In addition, the logFC is −1.367 in experiment [3]; −1.367 in experiment [3] (direction down); −0.4833 in experiment [4]; −0.7595 in experiment [5] (STK17B (O94768), experiment wp017); −0.4637 in experiment [6] (CDK14 (O94921-1), experiment wp017); −0.4936 in experiment [7] (PIM2 (Q9P1W9), experiment wp017). Moreover, the logFC in [8] is −0.7144; in experiment [9] (STK4 (Q13043-1), experiment wp017) it was −0.4936. In experiment [4], the “logFC GSK3A” value is on record as −0.4833. In addition, in experiment [5] (Experiment wp017, direction down), the “logFC STK17B (O94768)” value was −0.7595. Moreover, in experiment [6] (Experiment wp017), the “logFC of CDK14 (O94921-1)” value is on record as −0.4637. Further, the “logFC of PIM2 (Q9P1W9)” value in [7] (Experiment wp017) was −0.4936. Moreover, the “logFC of STK4 (Q13043-1)” value in experiment [9] (Experiment wp017) is reported as −0.4936.

As for `Nc1ncnc2c1c(-c1ccc(Oc3ccccc3)cc1)nn2[C@H]1CC[C@H](N2CCN(CCCCCCNC(=O)COc3cccc4c3C(=O)N(C3CCC(=O)NC3=O)C4=O)CC2)CC1` (stereo partly drawn) [SB1.G.200], the logFC in experiment [10] (ABL2 (P42684) protein abundance, degrader vs DMSO, down) is recorded as −2.103; in experiment [2] (SRC (P12931-2) protein abundance, degrader vs DMSO, down), −2.174; in experiment [12] (MAP2K5 (Q13163-1)), −1.433; in experiment [14], −0.76; in experiment [15] it was −1.403. For the same compound, the “logFC ABL2 (P42684)” value in experiment [10] (experiment wp071) is given as −2.103. In experiment [11] (BLK (P51451), direction down, experiment wp071), the “logFC BLK” value was −1.525. The “logFC of BLK (P51451)” value in experiment [11] (Experiment wp071, down) is −1.525. The “logFC ABL1” value in experiment [2] (ABL1 (P00519-2), experiment wp071) is listed as −1.646. Moreover, the “logFC FYN” value in experiment [2] (Accession P06241-2, experiment wp071) was −1.777; in [2] (FYN P06241-2, experiment wp071), −1.777. Further, the “logFC of SRC” value in experiment [2] (Accession P12931-2, experiment wp071) was −2.174. For the same compound, the “logFC LCK” value in [2] (LCK, accession P06239-3, experiment wp071, direction of change down) is −1.275. The “logFC ABL1 (P00519-2)” value in experiment [2] (experiment wp071) was −1.646. Further, the “logFC LCK (P06239-3)” value in [2] (experiment wp071, direction of change down) is −1.275. In addition, in experiment [12], the “logFC of MAP2K5 (Q13163-1)” value is recorded as −1.433. Also, the “logFC LIMK1” value in [13] (direction down) and in experiment [13] (down) was −0.775 each time. Further, the “logFC CSNK1E” value in [14] is −0.76. Also, in [15], the “logFC LATS1” value is given as −1.403. The “logFC of CSK” value in [16] (Accession P41240) is listed as −3.011. Further, the “logFC CSK” value in experiment [16] (CSK (P41240), down) is −3.011.
